For series [1], the target named is T1, nsp5 (Severe acute respiratory syndrome coronavirus 2, UniProt P0DTD1). Put plainly: Gel based nsp9 cleavage assay. In kind it is biochemical. Conditions: 1 µM nsp5, drug 10-500 µM.
Series [2] deals with T1, nsp5. Put plainly: biochemical. In kind it is biochemical. Conditions: for inhibition of nsp5 in FRET-based assay: drug concentrations 0 to 500 µM; for inhibition of nsp5 in presence of reducing agent: DTT or GSH; for inhibition of nsp5 in absence of reducing agent: no reducing agent.
For another series, the target named is thrombin (Homo sapiens, UniProt P00734). The series can be described thus: thrombin FRET protease assay (specificity). In kind it is biochemical. Conditions: for inhibition of thrombin activity (words): same buffer as in the HTS. From the text:
Calpain Inhibitor I and Z-DEVD-FMK were described recently as nsp5 inhibitors in vitro [21, 25]. To test the specificity of the final five drugs we tested them against a different protease, thrombin. We used the same buffer as in the HTS, which contained a non-ionic detergent, which reduces the likelihood of unspecific inhibition via colloidal aggregation. […] Lastly, we tested whether these compounds could inhibit the other viral coronavirus protease (nsp3 PLpro), which is also a cysteine protease. The substrate and assay conditions used in this experiment as well as example inhibitor compounds of PLpro are described elsewhere (see [28]).
The peptides were analysed by LC–MS on an Agilent 1100 LC-MSD.

The next series concerns SARS-CoV-2. Put plainly: viral infectivity assay in Vero E6 cells. In kind it is cell-based. Conditions: for EC50: read-out: EC50 viral infection.
In a further series the test system is rhesus macaques. Also on record: method as in PMID 29553486. Conditions: trials investigating AIDS disease progression; cited from earlier work.
A further series has as its system mice. Conditions: cited from earlier work.
Setting [3] is: FRET-based assay, 10 nM nsp5, 20 µM substrate, 2 mM DTT, mean ± SEM, read-out: IC50.
The mark [4] stands for this setting: Severe acute respiratory syndrome coronavirus 2, Vero C1008, Vero E6 cells, MOI 0.5 PFU/cell, mean ± SEM.

Several values for one entry are separate records, joined by “and”; a condition that tells them apart may be missing. Equal entries are not always repeated. Entries after “also recorded” stand apart in the source; their conditions may differ. Where two headings read alike, the source gives them in different places. Where a SMILES comes first, the peptide text is derived from it. [ ]: non-standard residue; d: D form. The star is where a group is joined. Nle = CCCC[C@H](N)C(=O)O; Cbz = O=C(OCc1ccccc1)*; CH2F = FC*

Broadly, the IC50 is the concentration that gives 50% inhibition. As to `CCC(C)C(NC(=O)OCc1ccccc1)C(=O)NC(CCC(=O)OC)C(=O)NC(C(=O)NC(CC(=O)OC)C(=O)CF)C(C)O` (stereo not shown) [Z-IETD-FMK] (Cbz-IE(OMe)TD(OMe)-CH2F; configuration not given here), on nsp5 [1], the “inhibition of nsp5 in nsp9 gel-based cleavage assay (words)” value (“inhibition of nsp5 … (words)” below) is reported as “inhibited nsp5”. The IC50 at nsp5 [2] (setting [3]) was determined as 0.23 ± 0.01 µM. Besides, at nsp5 [2] (FRET-based assay, mean ± SEM), the “Hill coefficient (nH)” value was -1.4 ± 0.08.
Take PDK1/Akt/Flt Dual Pathway Inhibitor: the “inhibition of nsp5 … (words)” value against nsp5 [1] is recorded as “Did not inhibit”; against nsp5 [1] (listed as PDK1/Akt/Flt Dual pathway), “did not show inhibition at any of the drug concentrations”. Moreover, the IC50 on nsp5 [2] (setting [3]) turned out to be 26.3 µM. For the same compound, the “Hill coefficient (nH)” value at nsp5 [2] (FRET-based assay, mean ± SEM) was -0.3 ± 0.02. Also, at nsp5 [2], the “inhibition of nsp5 in FRET-based assay” value is listed as “showed some inhibition of nsp5”.
As for `O=C1O/C(=C/Br)CCC1c1cccc2ccccc12` (stereo not shown) [Bromoenol lactone], at nsp5 [1], the “inhibition of nsp5 … (words)” value is on record as “inhibited nsp5”. Also, the “Inhibition of thrombin: nH” value on thrombin (HTS buffer, thrombin FRET substrate, mean ± SEM) is recorded as -2.8 ± 0.8. Further, the IC50 is 0.4 ± 0.6 µM at thrombin (HTS buffer, thrombin FRET substrate, mean ± SEM, read-out: Inhibition of thrombin: IC50) and 3.4 µM at nsp5 [2]. For the same compound, the “inhibition of thrombin activity (words)” value on thrombin is listed as “I nhibited thrombin”; against thrombin (listed as bromoenol lactone), “inhibited thrombin activity”. Moreover, the “Hill coefficient (nH)” value at nsp5 [2] (FRET-based assay, mean ± SEM) is reported as -2.6 ± 0.15.
With `CCOc1ccc(Cc2cc([C@@H]3O[C@H](SC)[C@@H](O)[C@H](O)[C@H]3O)ccc2Cl)cc1` [Sotagliflozin (LX4211), Sotagliflozin], at nsp5 [2], the “inhibition of nsp5 in FRET-based assay” value is recorded as “Did not inhibit”.
Take `COc1cc2ncc(-c3ccccc3)nc2cc1OC` [Tyrphostin AG 1296]: the “inhibition of nsp5 … (words)” value at nsp5 [1] is “did not inhibit in either validation step”. In addition, the “inhibition of nsp5 in FRET-based assay” value against nsp5 [2] is “did not inhibit in either validation step”.
With `COC(=O)CC(NC(=O)C(CC(C)C)NC(=O)C(NC(=O)C(C)NC(=O)C(CO)NC(=O)OCc1ccccc1)C(C)C)C(=O)CF` (stereo not shown) [Z-SAVLD-FMK] (Cbz-SAVLD(OMe)-CH2F; configuration not given here), the concentration for half-maximal inhibition (IC50) on nsp5 [2] (setting [3]) came out at 0.02 ± 0.001 µM.
In general, EC50 refers to the concentration needed to bring the measured effect to its halfway point. For the compound `COC(=O)CC(NC(=O)C(C)NC(=O)C(NC(=O)OCc1ccccc1)C(C)C)C(=O)CF` (stereo not drawn) [Z-VAD-FMK, Z-VAD(OMe)-FMK] (Cbz-Val-Ala-Asp(OMe)-CH2F; configuration not given here), the half-maximal effective concentration (EC50) in the series with SARS-CoV-2 (setting [4]) came out at 138 ± 19 µM. For the same compound, the “concentrations at which inhibition of viral infection was displayed” value in the series on SARS-CoV-2 (Vero E6 cells) was “greater than 100 µM”. Moreover, the “inhibition of nsp5 … (words)” value at nsp5 [1] is given as “inhibited nsp5”. Also, 0.16 ± 0.01 µM corresponded to half-maximal inhibition on nsp5 [2] (IC50). Moreover, the “Hill coefficient (nH)” value on nsp5 [2] (FRET-based assay, mean ± SEM) is recorded as -1.5 ± 0.07.
As for `CC(C)[C@H](NC(=O)c1ccc2ccccc2n1)C(=O)N[C@@H](CC(=O)O)C(=O)COc1c(F)cccc1F` [Q-VD-OPh], the “toxic side effects in rhesus macaques” value in the series with rhesus macaques is listed as “no toxic side effects”. Moreover, the “inhibition of nsp5 … (words)” value on nsp5 [1] was “did not inhibit nsp5 activity”.
For the compound `CCCC[C@@H](C=O)NC(=O)[C@H](CC(C)C)NC(=O)[C@H](CC(C)C)NC(C)=O` [Calpain Inhibitor I, (2S)-2-(acetylamino)-N-[(1S)-1-({[(1S)-1-formylpentyl]amino}carbonyl)-3-methylbutyl]-4-methylpentanamide] (Ac-Leu-Leu-[Nle]-aldehyde), the EC50 in the series on SARS-CoV-2 (setting [4]) came out at 0.28 ± 0.01 µM. Moreover, in the series on mice, the “toxic effects in mice” value is “without obvious toxic effects”. The “inhibition of nsp5 … (words)” value at nsp5 [1] was “inhibited nsp5”. Besides, the IC50 at nsp5 [2] (setting [3]) was found to be 5.17 ± 0.17 µM; at nsp5 [2] (FRET-based assay, Reducing agent: DTT, read-out: IC50) it was 2.8 ± 0.2 µM; on nsp5 [2] (FRET-based assay, Reducing agent: GSH, read-out: IC50), 2.3 ± 0.2 µM; at nsp5 [2] (FRET-based assay, Reducing agent: None, read-out: IC50) it was 2.4 ± 0.1 µM. The “inhibition of nsp5 in presence of reducing agent” value on nsp5 [2] (FRET-based assay) was “inhibited nsp5 in the absence of reducing agent as well as the presence of either reducing agent”. Also, the “inhibition of nsp5 in absence of reducing agent” value against nsp5 [2] (FRET-based assay) is “inhibited nsp5 in the absence of reducing agent”. On nsp5 [2] (FRET-based assay, mean ± SEM), the “Hill coefficient (nH)” value is given as -2.0 ± 0.1.
Regarding `CCNC(=O)[C@H]1O[C@@H](n2cnc3c(N)ncnc32)[C@H](O)[C@@H]1O` [5'-N-Ethulcarbomaxidoadenosine], the “inhibition of nsp5 in FRET-based assay” value against nsp5 [2] is listed as “Did not inhibit”.
For the compound Q-IETD-OPh, the “inhibition of nsp5 … (words)” value on nsp5 [1] is “showed the best nsp5 inhibition”.
With `CN1CCN(c2c(F)cc3c(=O)c(C(=O)O)cn4c3c2OCN4C)CC1` [Marbofloxacin], on nsp5 [2], the “inhibition of nsp5 in FRET-based assay” value was “Did not inhibit”.
Same read-out and setting: then `Cc1ccccc1N=Nc1ccc(NC(=O)c2ccnn2C)c(C)c1` [CH-223191], with “Did not inhibit”.
In the case of `COC(=O)CC(NC(=O)C(CC(C)C)NC(=O)C(NC(=O)C(C)NC(=O)OCc1ccccc1)C(C)C)C(=O)CF` (stereo not shown) [Z-AVLD-FMK] (Cbz-AVLD(OMe)-CH2F; configuration not given here), the concentration giving a half-maximal response (EC50) in the series on SARS-CoV-2 (Severe acute respiratory syndrome coronavirus 2, Vero C1008) was determined as 66 ± 7.28 µM; with SARS-CoV-2, 66 ± 7.3 µM. Further, the “increase in inhibitor potency (EC50) compared with Z-VAD-FMK” value in the series with SARS-CoV-2 (Vero E6 cells) was found to be 2 fold. The concentration for half-maximal inhibition (IC50) at nsp5 [2] (FRET-based assay, custom FMK peptides, mean ± SEM, read-out: IC50) was < 0.001 µM and 0.0008 µM.
As to `COC(=O)CC(NC(=O)C(CC(C)C)NC(=O)C(NC(=O)C(C)NC(=O)C(CO)NC(=O)C(C)NC(=O)OCc1ccccc1)C(C)C)C(=O)CF` (stereo not shown) [Z-ASAVLD-FMK] (Cbz-ASAVLD(OMe)-CH2F; configuration not given here), at nsp5 [2] (setting [3]), the half-inhibitory concentration (IC50) was 0.26 ± 0.02 µM.
As to `Br.CCCc1cc(-c2nc(-c3ccc(C)cc3)cs2)ccn1` [Fatostatin HBr], the “inhibition of nsp5 … (words)” value at nsp5 [1] was “Did not inhibit; also recorded: did not show inhibition at any of the drug concentrations”. The IC50 at nsp5 [2] (setting [3]) came out at 64.9 µM. Besides, the “Hill coefficient (nH)” value on nsp5 [2] (FRET-based assay, mean ± SEM) is on record as -0.3 ± 0.08. Further, the “inhibition of nsp5 in FRET-based assay” value against nsp5 [2] is given as “showed some inhibition of nsp5”.
For `COC(=O)CCC(NC(=O)C(CC(=O)OC)NC(=O)OCc1ccccc1)C(=O)NC(C(=O)NC(CC(=O)OC)C(=O)CF)C(C)C` (stereo not shown) [Z-DEVD-FMK], the “inhibition of nsp5 … (words)” value at nsp5 [1] is reported as “inhibited nsp5”. Moreover, on nsp5 [2], half-maximal inhibition (IC50) required 0.23 ± 0.03 µM. Moreover, the “Hill coefficient (nH)” value on nsp5 [2] (FRET-based assay, mean ± SEM) is on record as -0.7 ± 0.05.
In the case of Q-DEVD-OPh, the “inhibition of nsp5 … (words)” value against nsp5 [1] is “only displayed inhibition at the highest concentration of drug tested”.
`O=c1c2ccccc2[se]n1-c1ccccc1` [Ebselen]: at nsp5 [2] (FRET-based assay), the “inhibition of nsp5 in presence of reducing agent” value is recorded as “only a slight reduction in nsp5 activity” and the “inhibition of nsp5 in absence of reducing agent” value is “inhibited nsp5 only in the absence of a reducing agent”.
